# Molecular target: T1, h5-HT4b (Homo sapiens, UniProt Q13639)
# T1 construct: expressed in transfected cells; host or cells: HEK 293 (clone 9), membrane preparation
# Assay: 5HT4 antagonism: [3H]GR113808 binding to membranes of h5-HT4b-HEK 293 clone 9 cells
# Conditions: displacement of [3H]GR113808 0.1 nM, h5-HT4b-HEK 293 membranes, 30 min at 25° C.; read-out: pIC50 (5HT4 antagonistic data) (converted)
# Protocol: h5-HT4b-HEK 293 clone 9 cells were cultured in 150 mm Petri dishes and washed twice with cold PBS. The cells were then scraped from the plates and suspended in 50 mM Tris-HCl buffer, pH 7.4 and harvested by centrifugation at 23,500 rpm for 10 minutes. The pellet was resuspended in 5 mM Tris-HCl, pH 7.4 and homogenized with an Ultra Turrax homogenizer. The membranes were collected by centrifugation at 30,000 rpm for 20 min, resuspended in 50 mM Tris-HCl pH 7.4 and stored at −80° C. For the experiment, assay mixtures (0.5 ml) contained 50 μl of the tritiated ligand (5-HT4 antagonist [^3H]GR113808 0.1 nM) and 0.4 ml membrane preparation (15 μg protein/ml). 50 μl of 10% DMSO was added for total binding. 50 μl of 1 μM of (+)-trans-(1-butyl-3-hydroxy-4-piperidinyl)methyl 8-amino-7-chloro-2,3-dihydro-1,4-benzodioxin-5-carboxylate (a proprietary 5HT4 agonist of Janssen Pharmaceutica) was added for determination of non-specific binding.
# The [^3H]GR113808 assay buffer was 50 mM HEPES-NaOH, pH 7.4. The mixtures were incubated for 30 min at 25° C. The incubation was terminated by filtration over a Unifilter 96 GF/B presoaked in 0.1% polyethylenimine, followed by six washing steps with 50 mM HEPES-NaOH, pH 7.4.
# T1 sequence (Q13639 whole entry): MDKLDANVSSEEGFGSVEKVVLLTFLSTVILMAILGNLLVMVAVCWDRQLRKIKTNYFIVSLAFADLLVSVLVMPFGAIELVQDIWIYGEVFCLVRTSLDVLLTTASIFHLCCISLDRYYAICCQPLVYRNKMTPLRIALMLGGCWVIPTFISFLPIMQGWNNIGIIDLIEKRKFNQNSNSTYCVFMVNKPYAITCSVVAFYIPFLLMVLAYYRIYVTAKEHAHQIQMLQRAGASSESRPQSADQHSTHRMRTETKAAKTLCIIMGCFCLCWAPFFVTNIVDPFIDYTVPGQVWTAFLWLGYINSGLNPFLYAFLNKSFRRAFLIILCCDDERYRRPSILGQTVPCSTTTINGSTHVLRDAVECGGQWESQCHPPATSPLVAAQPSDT
row,IC50,Compound
1,0.00631 µM,Nc1cc2c(c(C(=O)NC[C@@H]3CCN(CCCOC4CCCCC4)C[C@H]3O)c1)OCCO2 [compound 85]
2,0.132 µM,Nc1cc2c(c(C(=O)NC[C@@H]3CCN(CCOCCO)C[C@H]3O)c1)OCCO2 [compound 86]
3,0.257 µM,COc1cc2c(c(C(=O)NC[C@@H]3CCNC[C@H]3O)c1)OCCCO2 [compound 88]
4,0.0309 µM,CNCCCCN1CC[C@@H](CNC(=O)c2cc(N)c(Cl)c3c2OCCO3)[C@H](O)C1 [compound 89]
5,0.0347 µM,CNCCCCN1CC[C@@H](CNC(=O)c2cc(NC)cc3c2OCCO3)[C@H](O)C1 [compound 90]
6,0.229 µM,CNCCCCN1CC[C@@H](CNC(=O)c2cc(NC)cc3c2OCCCO3)[C@H](O)C1 [compound 91]
7,0.012 µM,Cc1nccnc1NCCN1CC[C@@H](CNC(=O)c2cc(N)c(Cl)c3c2OCCCO3)[C@H](O)C1 [compound 92]
8,0.017 µM,CC(C)OCCCN1CC[C@@H](CNC(=O)c2cc(N)c(Cl)c3c2OCCO3)[C@H](O)C1 [compound 93]
9,0.0347 µM,CNCCCCN1CC[C@@H](CNC(=O)c2cc(N)c(Cl)c3c2OCCCO3)[C@H](O)C1 [compound 94]
10,0.0363 µM,CNc1cc2c(c(C(=O)NC[C@@H]3CCN(CCNc4nccnc4C)C[C@H]3O)c1)OCCCO2 [compound 95]
11,0.00617 µM,CC(C)OCCCN1CC[C@@H](CNC(=O)c2cc(N)c(Cl)c3c2OCCCO3)[C@H](O)C1 [compound 96]
12,0.0158 µM,CNc1cc2c(c(C(=O)NC[C@@H]3CCN(CCCCO)C[C@H]3O)c1)OCCO2 [compound 97]
13,0.0148 µM,Nc1cc2c(c(C(=O)NC[C@@H]3CCN(CCCCO)C[C@H]3O)c1)OCCO2 [compound 98]
14,0.0724 µM,CS(=O)(=O)NCCN1CC[C@@H](CNC(=O)c2cc(N)cc3c2OCCCO3)[C@H](O)C1 [compound 99]
15,0.0166 µM,CNc1cc(C(=O)NC[C@@H]2CCN(CCCO)C[C@H]2O)c2c(c1Cl)OCCO2 [compound 100]
16,0.0501 µM,CNc1cc2c(c(C(=O)NC[C@@H]3CCN(CCCOC(C)C)C[C@H]3O)c1)OCCCO2 [compound 101]
17,0.12 µM,CNc1cc2c(c(C(=O)NC[C@@H]3CCN(CCNS(C)(=O)=O)C[C@H]3O)c1)OCCCO2 [compound 102]
18,0.0229 µM,CNc1cc2c(c(C(=O)NC[C@@H]3CCN(CCNS(C)(=O)=O)C[C@H]3O)c1)OCCO2 [compound 103]
19,0.0339 µM,CNCCCCN1CC[C@@H](CNC(=O)c2cc(N)cc3c2OCCO3)[C@H](O)C1 [compound 104]
20,0.437 µM,CNc1cc(C(=O)NC[C@@H]2CCNC[C@H]2O)c2c(c1Cl)OCCO2 [compound 105]
21,0.363 µM,CNCCCCN1CC[C@@H](CNC(=O)c2cc(N)cc3c2OCCCO3)[C@H](O)C1 [compound 106]
22,0.0257 µM,Nc1cc2c(c(C(=O)NC[C@@H]3CCN(CCC4OCCO4)C[C@H]3O)c1)OCCO2 [compound 108]
23,0.0363 µM,COCCCN1CC[C@@H](CNC(=O)c2cc(N)cc3c2OCCO3)[C@H](O)C1 [compound 109]
24,0.0191 µM,CCCCN1CC[C@@H](CNC(=O)c2cc(N)cc3c2OCCCO3)[C@H](O)C1 [compound 110]

row,IC50,Compound
1,0.02 µM,COCCCN1CC[C@@H](CNC(=O)c2cc(N)cc3c2OCCCO3)[C@H](O)C1 [compound 111]
2,0.0132 µM,Nc1cc2c(c(C(=O)NC[C@@H]3CCN(CCCO)C[C@H]3O)c1)OCCCO2 [compound 112]
3,0.00832 µM,CCCCN1CC[C@@H](CNC(=O)c2cc(NC)cc3c2OCCCO3)[C@H](O)C1 [compound 114]
4,0.0162 µM,CNc1cc2c(c(C(=O)NC[C@@H]3CCN(CCCOC)C[C@H]3O)c1)OCCO2 [compound 115]
5,0.0162 µM,CCCCN1CC[C@@H](CNC(=O)c2cc(NC)cc3c2OCCO3)[C@H](O)C1 [compound 116]
6,0.00155 µM,Nc1cc2c(c(C(=O)NC[C@@H]3CCN(CCCO)C[C@H]3O)c1)OCCO2 [compound 117]
7,0.0603 µM,Nc1cc2c(c(C(=O)NC[C@@H]3CCN(CCC4OCCO4)C[C@H]3O)c1)OCCCO2 [compound 118]
8,0.00891 µM,CCCCN1CC[C@@H](CNC(=O)c2cc(COC)cc3c2OCCCO3)[C@H](O)C1 [compound 119]
9,0.0437 µM,N#CCc1cc2c(c(C(=O)NC[C@@H]3CCN(CCCO)C[C@H]3O)c1)OCCCO2 [compound 120]
10,0.708 µM,N#CCc1cc2c(c(C(=O)NC[C@@H]3CCNC[C@H]3O)c1)OCCCO2 [compound 121]
11,0.0324 µM,COCc1cc2c(c(C(=O)NC[C@@H]3CCN(CCCO)C[C@H]3O)c1)OCCCO2 [compound 122]
12,0.0437 µM,N#CCc1cc2c(c(C(=O)NC[C@@H]3CCN(CCC4OCCO4)C[C@H]3O)c1)OCCCO2 [compound 123]
13,0.0269 µM,COCCCN1CC[C@@H](CNC(=O)c2cc(COC)cc3c2OCCCO3)[C@H](O)C1 [compound 124]
14,0.0182 µM,COCc1cc2c(c(C(=O)NC[C@@H]3CCN(CCC4OCCO4)C[C@H]3O)c1)OCCCO2 [compound 126]
15,0.017 µM,N#CCc1cc2c(c(C(=O)NC[C@@H]3CCN(CC4CCCO4)C[C@H]3O)c1)OCCCO2 (some centres unmarked) [compound 127]
16,0.0166 µM,COc1cc2c(c(C(=O)NC[C@@H]3CCN(CCCC#N)C[C@H]3O)c1)OCCCO2 [compound 128]
17,0.0162 µM,CNc1cc(C(=O)NC[C@@H]2CCN(CC3CCCO3)C[C@H]2O)c2c(c1Cl)OCCO2 (some centres unmarked) [compound 129]
18,0.055 µM,CNc1cc(C(=O)NC[C@@H]2CCN(CCCC#N)C[C@H]2O)c2c(c1Cl)OCCO2 [compound 130]
19,0.135 µM,CCCNc1cc2c(c(C(=O)NC[C@@H]3CCN(CCCC#N)C[C@H]3O)c1)OCCCO2 [compound 131]
20,0.0912 µM,CS(=O)(=O)NCCN1CC[C@@H](CNC(=O)c2cc(N)cc3c2OCCO3)[C@H](O)C1 [compound 132]
21,0.537 µM,Nc1cc(C(=O)NC[C@@H]2CCNC[C@H]2O)c2c(c1Br)OCCO2 [compound 133]
22,0.0955 µM,CCCCN1CC[C@@H](CNC(=O)c2cc(NCCC)cc3c2OCCCO3)[C@H](O)C1 [compound 134]
23,0.0933 µM,CCCNc1cc2c(c(C(=O)NC[C@@H]3CCN(CCC4OCCO4)C[C@H]3O)c1)OCCCO2 [compound 135]
24,0.0813 µM,CNc1cc2c(c(C(=O)NC[C@@H]3CCN(CCCCO)C[C@H]3O)c1)OCCCO2 [compound 136]

row,IC50,Compound
1,0.0275 µM,Nc1cc(C(=O)NC[C@@H]2CCN(CC3CCCO3)C[C@H]2O)c2c(c1Br)OCCO2 (some centres unmarked) [compound 137]
2,0.0813 µM,N#CCCCCN1CC[C@@H](CNC(=O)c2cc(N)c(Br)c3c2OCCO3)[C@H](O)C1 [compound 138]
3,0.0398 µM,COCCCCN1CC[C@@H](CNC(=O)c2cc(N)c(Br)c3c2OCCO3)[C@H](O)C1 [compound 139]
4,0.0933 µM,Nc1cc(C(=O)NC[C@@H]2CCN(CCCO)C[C@H]2O)c2c(c1Br)OCCO2 [compound 140]
5,0.0437 µM,Nc1cc(C(=O)NC[C@@H]2CCN(CCC3OCCO3)C[C@H]2O)c2c(c1Br)OCCO2 [compound 141]
6,1.15 µM,Nc1cc(C(=O)NC[C@@H]2CCNC[C@H]2O)c2c(c1Br)OCCCO2 [compound 142]
7,0.0617 µM,CCCCNc1cc2c(c(C(=O)NC[C@@H]3CCN(CCCC)C[C@H]3O)c1)OCCCO2 [compound 143]
8,0.112 µM,CCCCNc1cc2c(c(C(=O)NC[C@@H]3CCN(CCC4OCCO4)C[C@H]3O)c1)OCCCO2 [compound 144]
9,0.0631 µM,N#CCCCN1CC[C@@H](CNC(=O)c2cc(N)c(Br)c3c2OCCCO3)[C@H](O)C1 [compound 145]
10,0.0347 µM,Nc1cc(C(=O)NC[C@@H]2CCN(CCC3OCCO3)C[C@H]2O)c2c(c1Br)OCCCO2 [compound 146]
11,0.0437 µM,Nc1cc(C(=O)NC[C@@H]2CCN(CCCO)C[C@H]2O)c2c(c1Br)OCCCO2 [compound 147]
12,0.1 µM,CCCNc1cc2c(c(C(=O)NC[C@@H]3CCN(CCCOC)C[C@H]3O)c1)OCCCO2 [compound 148]
13,3.55 µM,CCCNc1cc2c(c(C(=O)NC[C@@H]3CCNC[C@H]3O)c1)OCCCO2 [compound 149]
14,0.12 µM,CCCCNc1cc2c(c(C(=O)NC[C@@H]3CCN(CCCC#N)C[C@H]3O)c1)OCCCO2 [compound 150]
15,0.0891 µM,CCCNc1cc2c(c(C(=O)NC[C@@H]3CCN(CCCO)C[C@H]3O)c1)OCCCO2 [compound 151]
16,0.024 µM,Nc1cc(C(=O)NC[C@@H]2CCN(CC3CCCO3)C[C@H]2O)c2c(c1Br)OCCCO2 (some centres unmarked) [compound 152]
17,0.0138 µM,CCCCN1CC[C@@H](CNC(=O)c2cc(N)c(Br)c3c2OCCO3)[C@H](O)C1 [compound 153]
18,3.16 µM,CCCCNc1cc2c(c(C(=O)NC[C@@H]3CCNC[C@H]3O)c1)OCCCO2 [compound 154]
19,0.055 µM,COCCCN1CC[C@@H](CNC(=O)c2cc(N)c(Br)c3c2OCCCO3)[C@H](O)C1 [compound 155]
20,0.0468 µM,CCCCNc1cc2c(c(C(=O)NC[C@@H]3CCN(CCCO)C[C@H]3O)c1)OCCCO2 [compound 156]
21,0.0813 µM,CCCCNc1cc2c(c(C(=O)NC[C@@H]3CCN(CCCOC)C[C@H]3O)c1)OCCCO2 [compound 157]
22,0.02 µM,N#CCCCN1CC[C@@H](CNC(=O)c2cc(C#N)cc3c2OCCCO3)[C@H](O)C1 [compound 160]
23,0.0851 µM,CCCCN1CC[C@@H](CNC(=O)c2cc(NCC)cc3c2OCCCO3)[C@H](O)C1 [compound 161]

# Reference: patent publication US7638535B2, “4-(aminomethyl)-piperidine benzamides as 5HT4-antagonists” (Janssen Pharmaceutica N.V., priority 2003, dated 2009)
